Reference: patent US20170037008A1, “PHENYL BENZYL ETHER DERIVATIVE AND PREPARATION METHOD AND APPLICATION THEREOF” (BEIJING ZHIBO BIO-MEDICAL TECHNOLOGY CO., LTD, priority 2013, published 2017)

Tests used:
[1] = Biological distribution in bodies of normal mice; type: in vivo, mice (ICR); conditions: caudal vein injection
Description: Through in-vivo distribution experiments, pharmacokinetic features, especially initial bran intake and brain removal situations of ^18F or ^125I labeled compounds in the bodies of mice are studied. […] Data are expressed in radioactive percentage dosage per organ (% ID/organ) and radioactive percentage dosage per gram of organ (% ID/g).

logD of labeled ligands = type: physicochemical

SMILES	Blood ([1]; 2 min)	Brain ([1]; 2 min)	Blood ([1]; 10 min)	Brain ([1]; 10 min)	Thyroid ([1]; 10 min)	Blood ([1]; 30 min)	Brain ([1]; 30 min)	Thyroid ([1]; 30 min)	Blood ([1]; 60 min)	Brain ([1]; 60 min)	Thyroid ([1]; 60 min)	logD (logD of labeled ligands)	Thyroid ([1]; 2 min)
COc1ccc(COc2ccc([125I])cc2)cc1 [[^125I]24]	5.13 ± 0.62 % ID/g	4.29 ± 1.06 % ID/g	4.26 ± 0.38 % ID/g	2.11 ± 0.38 % ID/g	0.07 ± 0.03 % ID/organ	3.31 ± 0.79 % ID/g	0.73 ± 0.17 % ID/g	0.17 ± 0.03 % ID/organ	2.60 ± 1.33 % ID/g	0.32 ± 0.09 % ID/g	0.19 ± 0.05 % ID/organ	[^125I]24 (logD = 4.16 ± 0.29)	–
FCCOc1ccc(OCc2ccc([125I])cc2)cc1 [[^125I]31a]	5.03 ± 0.20 % ID/g	7.04 ± 0.89 % ID/g	3.03 ± 0.48 % ID/g	2.73 ± 0.25 % ID/g	0.09 ± 0.02 % ID/organ	2.17 ± 0.31 % ID/g	1.05 ± 0.22 % ID/g	0.12 ± 0.01 % ID/organ	–	0.55 ± 0.11 % ID/g	0.16 ± 0.03 % ID/organ	[^125I]31a (logD = 3.96 ± 0.22)	0.12 ± 0.02 % ID/organ
FCCOc1ccc(COc2ccc([125I])cc2)cc1 [[^125I]35a]	4.96 ± 0.35 % ID/g	5.27 ± 0.98 % ID/g	3.88 ± 0.79 % ID/g	2.28 ± 0.27 % ID/g	0.13 ± 0.01 % ID/organ	3.89 ± 0.53 % ID/g	0.81 ± 0.06 % ID/g	0.19 ± 0.04 % ID/organ	3.01 ± 1.07 % ID/g	0.37 ± 0.06 % ID/g	0.34 ± 0.10 % ID/organ	[^125I]35a (logD = 2.50 ± 0.23)	0.13 ± 0.02 % ID/organ
